Experimental data: PMC11039317, “Acidity of persulfides and its modulation by the protein environments in sulfide quinone oxidoreductase and thiosulfate sulfurtransferase” (The Journal of Biological Chemistry, 2024)
“And” between values parts separate entries of the source, which are not always exact repeats. Equal entries are not always repeated.

Legend:
Cys = settings: cited from earlier work
Human SQOR [1] = target: T1, Human SQOR (Homo sapiens, UniProt Q9Y6N5); assay type: biochemical
T1 construct: made in house
T1 sequence (Q9Y6N5 whole entry): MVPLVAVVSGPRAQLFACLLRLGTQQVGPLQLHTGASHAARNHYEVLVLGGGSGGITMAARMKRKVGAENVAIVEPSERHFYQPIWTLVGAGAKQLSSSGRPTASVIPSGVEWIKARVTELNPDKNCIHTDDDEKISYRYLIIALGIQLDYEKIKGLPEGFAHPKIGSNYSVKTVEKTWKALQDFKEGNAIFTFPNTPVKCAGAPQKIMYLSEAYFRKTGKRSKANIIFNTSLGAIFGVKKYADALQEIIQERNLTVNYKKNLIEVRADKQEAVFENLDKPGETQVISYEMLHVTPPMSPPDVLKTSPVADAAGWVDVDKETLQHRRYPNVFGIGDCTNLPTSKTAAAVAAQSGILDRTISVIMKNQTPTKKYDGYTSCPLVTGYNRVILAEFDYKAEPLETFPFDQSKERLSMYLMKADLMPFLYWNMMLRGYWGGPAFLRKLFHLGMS
Description: The acidity of the persulfidated SQOR was evaluated by the pH-dependence of the steady-state rates. For enzymes that catalyze reactions with one substrate, the kinetic parameter kcat/Km (specificity constant) is an apparent second-order rate constant that reports on the properties of the free enzyme and the free substrate ([32]). kcat/Km can be calculated from the kinetic parameters kcat and Km obtained from typical Michaelis–Menten analysis (Equation 1). […]
SQOR uses three substrates: H2S, a sulfur acceptor (Acc^−), and CoQ (Fig. 1A). At saturating concentrations of H2S and CoQ, the kcat/Km^Acc- represents the apparent rate constant for the reaction between the sulfur acceptor and the Cys379SSH of the bis-persulfidated SQOR, and its pH-dependency reports on the pKa of both free species. Although the pH dependence of human SQOR activity has been reported ([25]), the pH dependence of kcat/Km is unavailable. The steady-state rate of SQOR was determined by monitoring the reduction of coenzyme Q1 (CoQ1) at 278 nm at varying pH at 25 °C. […]. Therefore, in the experiments with cyanide, the reactions were started with cyanide instead of SQOR so that the contribution of SQOR with H2S alone could be subtracted.
In experiments with sulfite, steady-state time courses with varying concentrations of sulfite (0.01–8 mM) were recorded, and linear functions were fitted to the first 15 to 40 s following SQOR addition (Fig. 3A). The slope before SQOR addition was subtracted to correct for the background nonenzymatic reduction of CoQ1, which was minimal. From the hyperbolic fit of the activity versus sulfite concentration plot (Fig. 3B), the kinetic parameters kcat^sulfite and Km^sulfite were obtained, and the kcat/Km^sulfite for each pH were calculated. As expected, when the kcat/Km^sulfite were plotted against pH, a bell-shaped profile was obtained (Fig. 3C), consistent with a reaction between a deprotonated species and a protonated one. An equation with two pKa was fitted to the data (Equation 3), assuming that deprotonated sulfite and protonated SQOR persulfide were the reacting species. […]. […]
The steady-state rates were obtained from linear fits to the data during the first 4 to 20 s following cyanide addition, and the slopes before cyanide addition were subtracted. The kcat/Km^cyanide at each pH was calculated according to Equation 2 using the enzyme (50 nM) and cyanide (90 μM) initial concentrations. […]
Human SQOR was expressed and purified as reported previously ([24], [25]). SQOR concentration was determined from the FAD absorbance at 450 nm, using ε = 11,500 M^−1 cm^−1 ([25]). […]
The activity of SQOR was measured at different pHs in a temperature-controlled spectrophotometer (Shimadzu UV-2600 or UV-1900i). […]

TST persulfide = TST persulfide (Homo sapiens, UniProt Q16762)
Chain of TST persulfide (Q16762 whole entry): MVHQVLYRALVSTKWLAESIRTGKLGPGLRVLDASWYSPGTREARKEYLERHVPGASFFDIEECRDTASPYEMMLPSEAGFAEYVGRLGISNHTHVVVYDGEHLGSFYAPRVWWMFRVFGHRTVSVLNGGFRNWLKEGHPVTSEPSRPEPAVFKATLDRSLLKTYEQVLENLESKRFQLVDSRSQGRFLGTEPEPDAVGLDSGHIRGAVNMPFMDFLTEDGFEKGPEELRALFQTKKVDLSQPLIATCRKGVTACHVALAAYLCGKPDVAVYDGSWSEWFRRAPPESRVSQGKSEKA
Description: Stopped-flow kinetic studies were performed on the isolated half-reactions between TST persulfide and sulfur acceptors. Preformed stocks of TST persulfide were used to monitor its reaction with sulfite or cyanide at varying pH at 25 °C. The reactions were followed by the changes in the intrinsic fluorescence of TST, taking advantage of the higher fluorescence in the thiol versus the persulfidated state, as reported for the bovine enzyme ([37]).
TST persulfide was exposed to a pseudo-first order excess of sulfite (15 and 75 μM) or cyanide (25 and 100 μM), and the increases in the intrinsic fluorescence were recorded (Fig. 5, A and B). Single exponential functions were fitted to the time courses. The kobs values were divided by the sulfite or cyanide concentration and the second order rate constants, kpH, were determined at each pH.
The persulfidated TST was diluted in ultrapure water in one of the stopped-flow syringes (1.6–2.0 μM, ∼ 2 mM Tris) and mixed with sulfite (30 and 150 μM) or cyanide (50 and 200 μM) prepared in the other syringe in ACES/Tris/ethanolamine buffer 2× in a pH range of 5.60 to 10.38, at 25 °C. The final concentrations were halved as a consequence of the stopped-flow mixing. The increase in intrinsic fluorescence due to thiol formation was recorded during 0.025 to 10 s depending on the time course. The final pH of the reaction mixtures was measured.

Human SQOR [2] = target: T1, Human SQOR; settings: potassium phosphate, pH 7.4, 4 °C; cited from earlier work
[3] = reported value; cited from earlier work
Human TST [4] = target: T2, Human TST (Homo sapiens, UniProt Q16762); settings: cited from earlier work
T2 sequence (Q16762 whole entry): as above

Cys248 = Cys248 (UniProt position 248, PLIATCRKGVT); experiment: kinetics; settings: 25 °C; I = 0.15 M (120 mM NaCl); acetic/MES/Tris (15 mM acetic acid, 15 mM MES, 30 mM Tris, 120 mM NaCl, 0.1 mM DTPA); TST thiol (sulfur-free) form reacting with thiosulfate, pseudo-first order
Human TST [5] = target: T2, Human TST; settings: pH 7.03
Description: The activity of TST was measured at different pH values and 25 °C by the steady-state rate of thiocyanate formation. […] After 30 to 90 s, the reactions were stopped by removing 305 μl aliquots and mixing them with 20 μl of 38% formaldehyde (Biopack) and 25 μl of 140 mM FeCl3·6H2O (Sigma-Aldrich) diluted in 32.5% HNO3 (Dorwil). Absorbances at 460 nm (Varian Cary 60, Agilent) were recorded immediately and interpolated into a 0 to 30 μM thiocyanate calibration curve. The thiocyanate standards were prepared daily in ACES/Tris/ethanolamine buffer, pH 7.8, and underwent the same procedures as the samples ([1]).
After 220 s, 5 μl of 5 M NaOH were added, changing the pH to 8.5. The concentrations of thiocyanate produced at 252 and 310 s were measured as described.

[6] = tested on: human 3-mercaptopyruvate sulfurtransferase; parameters: method as in earlier work; settings: cited from earlier work

Molecule: 3-Mercaptopyruvate sulfurtransferase (MPST) (Homo sapiens)
- pKa (Cys): 5.2

Molecule: O=S(O)O [sulfite]
- Km (Human SQOR [1]; acetic/MES/Tris buffer containing 120 mM NaCl, pH 7.17, read-out: apparent Km^sulfite): 2.4 ± 0.2 mM
- pKa of the deprotonated species (sulfite) (Human SQOR [1]; fit of kcat/Km^sulfite of SQOR versus pH, 25 °C): 6.8 ± 0.5
- pKa of the deprotonated species (sulfite) (TST persulfide): 6.89 ± 0.09
- second-order rate constant between the enzyme CT complex and sulfite (Human SQOR [2]): 390000 M⁻¹ s⁻¹
- pKa [3]: 6.91

Molecule: O=S(O)(O)=S [thiosulfate]
- thiosulfate concentration causing inhibition of TST (Human TST [4]; b33: with 312 μM cyanide): 30 mM and > 30 mM
- Km (Human TST [4]; read-out: Km^thiosulfate): 18 to 45 mM

Molecule: Thiosulfate sulfurtransferase (TST, rhodanese), thiol form (Homo sapiens)
- pKa (Cys248): 6.5 ± 0.1

B1: TST (protein, UniProt Q16762 2-297, looked up)
Thiosulfate sulfurtransferase: VHQVLYRALVSTKWLAESIRTGKLGPGLRVLDASWYSPGTREARKEYLERHVPGASFFDIEECRDTASPYEMMLPSEAGFAEYVGRLGISNHTHVVVYDGEHLGSFYAPRVWWMFRVFGHRTVSVLNGGFRNWLKEGHPVTSEPSRPEPAVFKATLDRSLLKTYEQVLENLESKRFQLVDSRSQGRFLGTEPEPDAVGLDSGHIRGAVNMPFMDFLTEDGFEKGPEELRALFQTKKVDLSQPLIATCRKGVTACHVALAAYLCGKPDVAVYDGSWSEWFRRAPPESRVSQGKSEKA
- apparent pKa of steady-state activity (Human TST [5]): 8.47 ± 0.06

B2: human 3-mercaptopyruvate sulfurtransferase: sulfurtransferase enzyme, literature thiol pKa (protein, UniProt P25325 2-297, looked up)
3-mercaptopyruvate …: ASPQLCRALVSAQWVAEALRAPRAGQPLQLLDASWYLPKLGRDARREFEERHIPGAAFFDIDQCSDRTSPYDHMLPGAEHFAEYAGRLGVGAATHVVIYDASDQGLYSAPRVWWMFRAFGHHAVSLLDGGLRHWLRQNLPLSSGKSQPAPAEFRAQLDPAFIKTYEDIKENLESRRFQVVDSRATGRFRGTEPEPRDGIEPGHIPGTVNIPFTDFLSQEGLEKSPEEIRHLFQEKKVDLSKPLVATCGSGVTACHVALGAYLCGKPDVPIYDGSWVEWYMRARPEDVISEGRGKTH
- pKa of the thiol [6]: 5.2
